Read-outs that look alike come from different tables or passages of the source.
Columns and labels:
human tumor cell lines = experiment: Colony formation assay, summary across cell lines; type: cell-based; details: c-Met expressing solid tumor types, 24 hours exposure, read-out: IC50 for c-Met expressing solid tumor types (CFA)
Description: To determine c-met inhibition, exponentially growing MCF-7 and MDA-MB-231 human breast cancer cells, DLD1 and HT29 human colon cancer cells, PACA2 and PANC-1 human pancreatic cancer cells and NCI-H441 human non-small cell lung cancer cells (H441) were serum starved in 0.5% FBS and treated with increasing amounts of (−)-trans-3-(5,6-dihydro-4H-pyrrolo [3,2,1-ij]quinolin-1-yl)-4(1H-indol-3-yl)pyrrolidine-2,5-dione for 24 hours as indicated. Cells were then left unstimulated or stimulated with 100 ng/mL HGF for 10 minutes and whole cell extracts were prepared. […] Percent inhibition was determined by densitometry using the Scion Image For colony formation assays (CFA), exponentially growing cells were seeded at 2,000 cells per well in 6-well plates and allowed to attach for 24 hours. […] Colonies of greater than 50 cells were scored as survivors and percentage of cell survival was plotted to determine the IC50. […] The IC50 of (−)-trans-3-(5,6-dihydro-4H-pyrrolo[3,2,1-ij]quinolin-1-yl)-4(1H-indol-3-yl) pyrrolidine-2,5-dione for c-Met expressing solid tumor types is in the 0.1-0.7 μM range following exposure to (−)-trans-3-(5,6-dihydro-4H-pyrrolo[3,2,1-ij]quinolin-1-yl)-4(1H-indol-3-yl)pyrrolidine-2,5-dione for 24 hours, as determined by colony formation assay (CFA).

[1] = test system: HT29 human colon cancer xenograft; experiment: Colon cancer xenograft model (Example 87); type: in vivo, mice; details: for optimal tumor growth inhibition: daily 5 days on/2 off, 20 treatments
Description: In this human colon cancer xenograft model HT29 human colon cancer cells were inoculated subcutaneously into female athymic nude mice (5×10^6 cells/mouse) and allowed to form palpable tumors. Once the tumors reached approximately 60 mm^3, the animals were treated orally with either (−)-trans-3-(5,6-dihydro-4H-pyrrolo[3,2,1-ij]quinolin-1-yl)-4(1H-indol-3-yl)pyrrolidine-2,5-dione at 200 mg/kg or 300 mg/kg, or vehicle control daily (5 consecutive days, followed by a 2 day dosing holiday). (−)-trans-3-(5,6-dihydro-4H-pyrrolo[3,2,1-ij]quinolin-1-yl)-4(1H-indol-3-yl)pyrrolidine-2,5-dione was formulated in PEG 400:20% Vitamin E TPGS (60:40). The animals received a total of 20 treatments of either (−)-trans-3-(5,6-dihydro-4H-pyrrolo[3,2,1-ij]quinolin-1-yl)-4(1H-indol-3-yl) pyrrolidine-2,5-dione or vehicle control. Tumors were measured throughout treatment and the post-treatment observation period. Each point represents the mean±SEM of ten tumors. (See FIG. 11)

MDA-MB-231 cells = experiment: Colony counting, surviving fraction (Example 78); type: cell-based, human; details: Homo sapiens, MDA-MB-231; two days incubation, colonies counted two weeks later; read-out: IC50 (surviving fraction equaled 50)
Description: MDA-MB-231 cells (ATCC# HTB-26), grown in DMEM plus 15% heat inactivated fetal bovine serum plus 10 mM HEPES pH 7.5, were plated in 60 mm plates (2×10^5 cells per plate). After two days candidate compounds in DMSO at various concentrations were diluted in media and added to individual plates such that the final DMSO concentration in the cell culture media was 0.1%. After two days incubation the culture was trypsinized, cells were washed with media, counted using a hemocytometer and 500 cells, including cell bodies, were plated in […] in media. Two weeks later the media was removed and the cell colonies were fixed with methanol for 10 minutes, stained with 1% crystal violet 10 minutes, washed with water and air dried. Cell colonies were visually counted when there were greater then 50 cells present per colony. Plating efficiency was defined as the average number of colonies formed divided by 500. The surviving fraction was defined as the plating efficiency of a candidate compound divided by the plating efficiency of DMSO multiplied by 100. For candidate compound titrations, the IC50 concentration was determined by fitting the equation y=AeBx to the data points and extrapolating the concentration where surviving fraction equaled 50. […]

c-Met = c-Met (Homo sapiens, UniProt P08581); experiment: c-Met inhibition, phospho-c-Met blot with densitometry (Example 83); type: cell-based; design: whole cell extracts were prepared; endogenous in cells; host or cells: MCF-7, MDA-MB-231, DLD1, HT29, PACA2, PANC-1, NCI-H441; details: 24 hours treatment, read-out: (−)-trans IC50 c-Met Inhibition
c-Met, sequence (P08581 25-1390): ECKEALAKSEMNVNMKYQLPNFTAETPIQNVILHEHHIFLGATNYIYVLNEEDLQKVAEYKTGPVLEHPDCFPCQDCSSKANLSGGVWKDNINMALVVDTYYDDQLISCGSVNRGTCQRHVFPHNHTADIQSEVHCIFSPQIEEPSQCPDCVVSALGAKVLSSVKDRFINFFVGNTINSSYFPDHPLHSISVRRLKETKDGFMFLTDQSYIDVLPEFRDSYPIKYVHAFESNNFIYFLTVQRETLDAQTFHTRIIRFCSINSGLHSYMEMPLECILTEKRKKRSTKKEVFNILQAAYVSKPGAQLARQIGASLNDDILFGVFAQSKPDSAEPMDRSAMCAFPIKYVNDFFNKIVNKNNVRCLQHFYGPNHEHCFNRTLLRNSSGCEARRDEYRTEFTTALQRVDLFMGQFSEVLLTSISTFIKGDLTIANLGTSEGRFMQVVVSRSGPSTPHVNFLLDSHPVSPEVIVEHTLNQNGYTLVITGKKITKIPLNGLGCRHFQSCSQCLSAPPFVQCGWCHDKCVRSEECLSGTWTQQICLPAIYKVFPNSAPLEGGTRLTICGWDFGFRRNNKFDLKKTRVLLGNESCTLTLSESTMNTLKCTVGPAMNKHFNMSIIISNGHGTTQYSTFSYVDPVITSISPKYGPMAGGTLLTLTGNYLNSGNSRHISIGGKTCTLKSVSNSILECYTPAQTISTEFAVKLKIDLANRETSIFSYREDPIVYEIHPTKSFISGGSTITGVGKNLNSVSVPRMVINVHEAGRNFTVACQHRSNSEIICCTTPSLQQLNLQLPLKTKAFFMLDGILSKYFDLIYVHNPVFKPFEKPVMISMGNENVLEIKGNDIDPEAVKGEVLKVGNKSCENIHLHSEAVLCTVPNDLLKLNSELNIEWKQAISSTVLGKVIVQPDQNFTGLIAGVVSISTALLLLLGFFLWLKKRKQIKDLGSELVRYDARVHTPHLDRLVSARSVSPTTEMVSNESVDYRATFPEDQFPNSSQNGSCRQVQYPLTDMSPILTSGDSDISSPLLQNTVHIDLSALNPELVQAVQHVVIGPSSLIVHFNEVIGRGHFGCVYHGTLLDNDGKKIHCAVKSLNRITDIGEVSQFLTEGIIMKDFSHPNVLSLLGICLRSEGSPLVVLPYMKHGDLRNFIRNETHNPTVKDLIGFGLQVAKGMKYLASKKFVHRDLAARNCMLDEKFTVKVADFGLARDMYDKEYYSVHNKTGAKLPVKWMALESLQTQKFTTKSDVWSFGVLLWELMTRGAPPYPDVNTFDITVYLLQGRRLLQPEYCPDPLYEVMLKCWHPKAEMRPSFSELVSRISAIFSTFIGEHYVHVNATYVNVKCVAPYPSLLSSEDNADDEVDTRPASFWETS
Description: To determine c-met inhibition, exponentially growing MCF-7 and MDA-MB-231 human breast cancer cells, DLD1 and HT29 human colon cancer cells, PACA2 and PANC-1 human pancreatic cancer cells and NCI-H441 human non-small cell lung cancer cells (H441) were serum starved in 0.5% FBS and treated with increasing amounts of (−)-trans-3-(5,6-dihydro-4H-pyrrolo [3,2,1-ij]quinolin-1-yl)-4(1H-indol-3-yl)pyrrolidine-2,5-dione for 24 hours as indicated. Cells were then left unstimulated or stimulated with 100 ng/mL HGF for 10 minutes and whole cell extracts were prepared. Whole cell lysates (50 μg) were resolved by SDS-PAGE, transferred onto a PVDF membrane, and an enhanced chemiluminescence assay system (ECL) was used to determine the phosphorylation status of c-Met. A polyclonal antibody against phospho (Y1349) c-Met (phospho-c-Met) was obtained from Biosource International and a monoclonal antibody against β-actin was purchased from Invitrogen. Percent inhibition was determined by densitometry using the Scion Image For colony formation assays (CFA), exponentially growing cells were seeded at 2,000 cells per well in 6-well plates and allowed to attach for 24 hours. Increasing concentrations of (−)-trans-3-(5,6-dihydro-4H-pyrrolo[3,2,1-ij]quinolin-1-yl)-4(1H-indol-3-yl)pyrrolidine-2,5-dione (from 0.01 to 30 μM) were then added to the media for another 24 hours. After 24 hours exposure, the drug was removed and fresh media was added for the next 14-21 days, allowing for colony formation. Cells were fixed and stained with GEMSA (Gibco BRL). Colonies of greater than 50 cells were scored as survivors and percentage of cell survival was plotted to determine the IC50. […] The IC50 of (−)-trans-3-(5,6-dihydro-4H-pyrrolo[3,2,1-ij]quinolin-1-yl)-4(1H-indol-3-yl) pyrrolidine-2,5-dione for c-Met expressing solid tumor types is in the 0.1-0.7 μM range following exposure to (−)-trans-3-(5,6-dihydro-4H-pyrrolo[3,2,1-ij]quinolin-1-yl)-4(1H-indol-3-yl)pyrrolidine-2,5-dione for 24 hours, as determined by colony formation assay (CFA).

[2] = test system: PACA-2 human pancreatic cancer xenograft; experiment: Pancreatic cancer xenograft model (Example 88); type: in vivo, mice; details: for optimal tumor growth inhibition: daily 5 days on/2 off, 20 doses
Description: PACA-2 human pancreatic cancer cells were inoculated subcutaneously into female athymic nude mice (5×10^6 cells/mouse) and allowed to form palpable tumors. Once the tumors reached approximately 60 mm^3, the animals were treated orally with (−)-trans-3-(5,6-dihydro-4H-pyrrolo[3,2,1-ij]quinolin-1-yl)-4(1H-indol-3-yl) pyrrolidine-2,5-dione at 200 mg/kg or 300 mg/kg or vehicle control daily (5 consecutive days, followed by a 2 day dosing holiday). (−)-trans-3-(5,6-dihydro-4H-pyrrolo[3,2,1-ij]quinolin-1-yl)-4(1H-indol-3-yl)pyrrolidine-2,5-dione was formulated in PEG 400:20% Vitamin E TPGS (60:40). The animals received a total of 20 doses of (−)-trans-3-(5,6-dihydro-4H-pyrrolo[3,2,1-ij]quinolin-1-yl)-4(1H-indol-3-yl)pyrrolidine-2,5-dione or vehicle control. Tumors were measured throughout treatment and the post-treatment observation period. Each point represents the mean±SEM of ten tumors. (See FIG. 12)

In the case of `O=C1NC(=O)C(c2cn3c4c(cccc24)CCC3)C1c1c[nH]c2ccccc12` (single isomer, unassigned; (-)), the IC50 (human tumor cell lines) is reported as 0.1 to 0.7 µM, the “change in body weight” value ([1]; 200 mg/kg or 300 mg/kg oral administration) is reported as “no significant change in body weight” and the “optimal tumor growth inhibition” value ([1]; 200 mg/kg orally) is reported as 39%. The “optimal tumor growth inhibition” value ([1]; 300 mg/kg orally) was 55%, the IC50 (MDA-MB-231 cells) was 0.62 µM and the IC50 (c-Met; DLD-1 cells) was 3 µM. It also gave an IC50 (c-Met; H441 cells) of 0.1 µM, an IC50 (c-Met; HT-29 cells) of 0.3 µM and an IC50 (c-Met; MCF-7 cells) of 0.1 µM. The IC50 (c-Met; MDA-MB-231 cells) was 0.1 µM, the IC50 (c-Met; PACA2 cells) was 0.1 µM and the IC50 (c-Met; PANC-1 cells) was 0.5 µM. The “change in body weight” value ([2]; 200 mg/kg and 300 mg/kg oral administration) was “no significant change in body weight”, the “optimal tumor growth inhibition” value ([2]; 200 mg/kg orally) was 58% and the “optimal tumor growth inhibition” value ([2]; 300 mg/kg orally) was 60%.

Reference: patent publication US7713969B2, “Compositions and methods for treatment of cancer” (ArQule, Inc., priority 2005, dated 2010)
